{
  "source": "patent US11364256B2",
  "about": "“Viral inhibition” (Monash University, priority 2020, dated 2022)",
  "key": {"[1]": {"system": "SARS-CoV-2 isolate Australia/VIC01/2020", "assay": "SARS-CoV-2 infected Vero/hSLAM cells treated after infection, viral RNA by real-time RT-PCR", "type": "cell-based"}, "Vero/hSLAM cells": {"system": "Vero/hSLAM cells", "details": "for toxicity at any of the time points tested: sample wells or parallel drug alone samples, 5 μM"}, "SARS-CoV-2": {"system": "SARS-CoV-2", "assay": "Prophylactic pre-treatment of Vero/hSLAM cells before SARS-CoV-2 infection, viral load by real-time PCR of supernatant", "type": "cell-based", "experimental": "Vero/hSLAM cells were pre-treated with DMSO, ivermectin or Moxidectin at the indicated concentrations for 2 h prior to infection with SARS-CoV-2 (MOI=0.01) for 2 h in the presence of DMSO or drugs. Samples were washed post-adsorption and incubated in the fresh media containing DMSO or drugs for 48 h before quantitation of viral load using real-time PCR of supernatant. The results shown in FIG. 5 represent mean±SD (n=6) relative to DMSO alone. […] Average IC50 values for CALU-3 cells compared to Vero/hSLAM cells assayed under the same conditions are shown (Table, right, n=independent experiments)."}, "[2]": {"system": "seasonal coronavirus 229E", "assay": "Huh-7 cells infected with 229E, treated after infection, viral load by real-time PCR of supernatant", "type": "cell-based", "details": "Huh-7, 229E MOI 0.01, 48 h post infection, read-out: IC50 (FIG. 6, panels A/B)", "experimental": "Huh-7 cells were infected with 229E (MOI=0.01) for 2 h prior to addition of vehicle (DMSO), Ivermectin (FIG. 6, panel A) or Moxidectin (FIG. 6, panel B) at the indicated concentrations. Samples were taken 48 h post infection for quantitation of viral load using real-time PCR of supernatant. Results represent mean±SD (n=6) relative to DMSO alone."}, "[3]": {"system": "seasonal coronavirus 229E", "assay": "Prophylactic pre-treatment of Huh-7 cells before 229E infection, viral load by real-time PCR", "type": "cell-based", "details": "Huh-7 pre-treated 2 h, 229E MOI 0.01, 48 h; read-out: IC50 (FIG. 6, panel C), prophylactic", "experimental": "For assessment of prophylactic potential Huh-7 cells were pre-treated with DMSO or ivermectin at the indicated concentrations for 2 h prior to infection with 229E (MOI=0.01) for 2 h in the presence of DMSO or ivermectin (FIG. 6, panel C). Samples (n=5) were washed post-adsorption and incubated in the fresh media containing DMSO or ivermectin for 48 h before quantitation of viral load as above."}, "[4]": {"system": "SARS-CoV-2 clinical isolate Australia/VIC01/2020", "assay": "SARS-CoV-2 infected CALU-3 (human lung) cells, viral load by real-time PCR of supernatant", "type": "cell-based", "experimental": "CALU-3 (human lung) cells were infected with SARS-CoV-2 clinical isolate Australia/VIC01/2020 (MOI=0.01) for 2 h prior to addition of vehicle (DMSO) or Ivermectin at the indicated concentrations indicated in FIG. 3. Samples were taken 24 h post infection for quantitation of viral load using real-time PCR of supernatant. The results illustrated in FIG. 3 represent mean±SD (n=6) relative to DMSO alone."}, "[5]": {"details": "48 h, compared to vehicle DMSO, Vero/hSLAM, E gene, concentration not restated (5 μM in FIG. 2, panel A)"}, "[6]": {"details": "5 μM, 24 h, MOI 0.1, Vero/hSLAM, compared to vehicle DMSO"}},
  "note": "Where two headings read alike, the source gives them in different places.",
  "data": [
    {"molecule": "CO/N=C1\\C[C@]2(C[C@@H]3C[C@@H](C/C=C(\\C)C[C@@H](C)/C=C/C=C4\\CO[C@@H]5[C@H](O)C(C)=C[C@@H](C(=O)O3)[C@]45O)O2)O[C@H](/C(C)=C/C(C)C)[C@H]1C", "note": "[moxidectin]", "values": [
      {"measurement": "reduction in viral RNA present in the supernatant (released virions)", "setting": "[1]; [5]", "result": 99.9, "unit": "%"},
      {"measurement": "IC50", "setting": "[1]; Severe acute respiratory syndrome coronavirus 2, 24 h, supernatant, E gene, MOI 0.01, Vero/hSLAM, read-out: Calculated IC50 (FIG. 2, panel B)", "result": 1300, "unit": "nM"},
      {"measurement": "IC50", "setting": "[1]; Severe acute respiratory syndrome coronavirus 2, 48 h, supernatant, E gene, MOI 0.01, Vero/hSLAM, read-out: Calculated IC50 (FIG. 2, panel C)", "result": 1300, "unit": "nM"},
      {"measurement": "IC50", "setting": "[1]; Severe acute respiratory syndrome coronavirus 2, 72 h, supernatant, E gene, MOI 0.01, Vero/hSLAM, read-out: Calculated IC50 (FIG. 2, panel D)", "result": 2400, "unit": "nM"},
      {"measurement": "toxicity at any of the time points tested", "setting": "Vero/hSLAM cells", "result": "No toxicity"},
      {"measurement": "IC50", "setting": "SARS-CoV-2; Severe acute respiratory syndrome coronavirus 2, Vero, read-out: IC50 +/− SEM (n*), treated prophylactically", "result": 1660, "unit": "nM"},
      {"measurement": "IC50", "setting": "SARS-CoV-2; Severe acute respiratory syndrome coronavirus 2, pre-treated 2 h, MOI 0.01, 48 h, supernatant, Vero/hSLAM, read-out: IC50 (FIG. 5), prophylactic", "result": 1800, "unit": "nM"},
      {"measurement": "IC50", "setting": "[2]; Human coronavirus 229E", "result": 240, "unit": "nM"}
    ]},
    {"molecule": "ivermectin", "values": [
      {"measurement": "IC50", "setting": "[3]", "result": 2060, "unit": "nM"},
      {"measurement": "reduction in cell-associated viral RNA (unreleased and unpackaged virions)", "setting": "[1]; [6]", "result": 99.8, "unit": "%"},
      {"measurement": "reduction in viral RNA present in the supernatant (released virions)", "setting": "[1]; [6]", "result": 93, "unit": "%"},
      {"measurement": "reduction in viral RNA in both supernatant and cell pellets", "setting": "[1]; 5 μM, 48 h, E gene, Vero/hSLAM", "result": "> 5000"},
      {"measurement": "reduction in viral RNA (equating to the >5000 reduction)", "setting": "[1]; 5 μM, 48 h, supernatant and cell pellets, Vero/hSLAM", "result": 99.98, "unit": "%"},
      {"measurement": "further reduction in viral RNA at 72 h", "setting": "[1]; 5 μM, 72 h versus 48 h, MOI 0.1, Vero/hSLAM", "result": "no further reduction"},
      {"measurement": "IC50", "setting": "[1]; 24 h, supernatant, E gene, MOI 0.01, Vero/hSLAM, read-out: Calculated IC50 (FIG. 2, panel B)", "result": 1400, "unit": "nM"},
      {"measurement": "reduction in viral RNA present in the supernatant (released virions)", "setting": "[1]; [5]", "result": 99.5, "unit": "%"},
      {"measurement": "IC50", "setting": "[1]; 48 h, supernatant, E gene, MOI 0.01, Vero/hSLAM, read-out: Calculated IC50 (FIG. 2, panel C)", "result": 2200, "unit": "nM"},
      {"measurement": "IC50", "setting": "[1]; 72 h, supernatant, E gene, MOI 0.01, Vero/hSLAM, read-out: Calculated IC50 (FIG. 2, panel D)", "result": 3100, "unit": "nM"},
      {"measurement": "IC50", "setting": "[1]; E gene, 48 h, treated 2 h post infection, MOI 0.1, Vero/hSLAM, panels C/D = supernatant and cell pellets, read-out: IC50 of ivermectin treatment (FIG. 1, panel C)", "result": 2800, "unit": "nM"},
      {"measurement": "IC50", "setting": "[1]; E gene, 48 h, treated 2 h post infection, MOI 0.1, Vero/hSLAM, panels C/D = supernatant and cell pellets, read-out: IC50 of ivermectin treatment (FIG. 1, panel D)", "result": 2400, "unit": "nM"},
      {"measurement": "IC50", "setting": "[1]; RdRp gene primers, 48 h, MOI 0.1, Vero/hSLAM, panels E/F = released (supernatant) and cell-associated virus, read-out: IC50 of ivermectin treatment (FIG. 1, panel E)", "result": 2500, "unit": "nM"},
      {"measurement": "IC50", "setting": "[1]; RdRp gene primers, 48 h, MOI 0.1, Vero/hSLAM, panels E/F = released (supernatant) and cell-associated virus, read-out: IC50 of ivermectin treatment (FIG. 1, panel F)", "result": 2200, "unit": "nM"},
      {"measurement": "IC50", "setting": "[1]; average of independent experiments, Vero/hSLAM assayed under the same conditions as CALU-3, read-out: IC50 +/− SEM (n*), Vero/hSLAM", "result": 2370, "unit": "nM"},
      {"measurement": "IC50", "setting": "[4]; CALU-3, 24 h post infection, supernatant, MOI 0.01, read-out: IC50 (FIG. 3)", "result": 420, "unit": "nM"},
      {"measurement": "IC50", "setting": "[4]; average of independent experiments, CALU-3, read-out: IC50 +/− SEM (n*), CALU-3", "result": 410, "unit": "nM"},
      {"measurement": "toxicity at any of the time points tested", "setting": "Vero/hSLAM cells", "result": "No toxicity"},
      {"measurement": "toxicity at any of the concentrations tested", "setting": "Vero/hSLAM cells; serial dilutions, 48 h", "result": "no toxicity"},
      {"measurement": "IC50", "setting": "SARS-CoV-2; average of independent experiments, Vero/hSLAM, read-out: IC50 +/− SEM (n*), treated prophylactically", "result": 1730, "unit": "nM"},
      {"measurement": "IC50", "setting": "SARS-CoV-2; pre-treated 2 h, MOI 0.01, 48 h, supernatant, Vero/hSLAM, read-out: IC50 (FIG. 5), prophylactic", "result": 1600, "unit": "nM"},
      {"measurement": "IC50", "setting": "[2]", "result": 180, "unit": "nM"}
    ]}
  ]
}
